IC50 data for 33 compounds are collected here from US20110130380A1, “Heteroaryl Kinase Inhibitors” (priority 2009, published 2011).

Some results are limits rather than exact numbers.

In this test the target is Cdk9/cyclinT1 (Homo sapiens, UniProt P50750). The test can be described thus: Cdk9/cyclinT1 IMAP Protocol (fluorescence polarization kinase assay). To be noted: Cdk9_cyclinT1_IC50, Table V; generated using one of the two Cdk9/cyclinT1 assays (IMAP or Alpha Screen), not stated which; ATP 6 uM.
Sequence of Cdk9/cyclinT1 (P50750 whole entry): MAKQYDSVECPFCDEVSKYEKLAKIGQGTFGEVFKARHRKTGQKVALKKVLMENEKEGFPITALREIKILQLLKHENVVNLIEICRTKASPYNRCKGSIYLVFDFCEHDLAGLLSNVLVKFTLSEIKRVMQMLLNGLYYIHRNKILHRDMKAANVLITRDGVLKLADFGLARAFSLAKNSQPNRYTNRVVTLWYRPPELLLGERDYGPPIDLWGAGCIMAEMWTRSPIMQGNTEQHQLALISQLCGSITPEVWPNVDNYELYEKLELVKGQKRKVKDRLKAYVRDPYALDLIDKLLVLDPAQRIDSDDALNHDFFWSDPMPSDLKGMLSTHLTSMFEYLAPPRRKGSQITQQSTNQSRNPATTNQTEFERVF
Sequence of Cdk9/cyclinT1 (O60563 whole entry partner): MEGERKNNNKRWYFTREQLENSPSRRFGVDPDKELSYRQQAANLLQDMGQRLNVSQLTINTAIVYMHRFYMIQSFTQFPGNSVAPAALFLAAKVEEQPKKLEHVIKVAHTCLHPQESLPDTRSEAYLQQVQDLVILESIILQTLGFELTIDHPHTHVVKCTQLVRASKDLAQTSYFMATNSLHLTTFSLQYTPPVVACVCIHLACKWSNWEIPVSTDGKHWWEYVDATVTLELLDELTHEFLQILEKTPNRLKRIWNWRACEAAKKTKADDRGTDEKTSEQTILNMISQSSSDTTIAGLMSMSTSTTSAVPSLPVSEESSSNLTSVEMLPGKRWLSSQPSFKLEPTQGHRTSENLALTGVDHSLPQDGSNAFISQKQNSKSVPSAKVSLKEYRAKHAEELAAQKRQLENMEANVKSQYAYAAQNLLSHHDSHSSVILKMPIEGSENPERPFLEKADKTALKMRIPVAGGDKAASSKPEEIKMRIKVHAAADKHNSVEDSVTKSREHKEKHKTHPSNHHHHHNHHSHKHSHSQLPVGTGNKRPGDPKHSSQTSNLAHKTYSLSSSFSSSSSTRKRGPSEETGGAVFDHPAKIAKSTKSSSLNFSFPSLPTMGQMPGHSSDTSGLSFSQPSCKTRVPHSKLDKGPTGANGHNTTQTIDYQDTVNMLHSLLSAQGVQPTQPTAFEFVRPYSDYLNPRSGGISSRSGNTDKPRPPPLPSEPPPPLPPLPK

`CN(CC1CCOCC1)c1cccc(-c2cc(NC(=O)[C@@H]3CCCNC3)ncc2Cl)n1` [Example 35, (R)-Piperidine-3-carboxylic acid {5′-chloro-6-[methyl-(tetrahydro-pyran-4-ylmethyl)-amino]-[2,4′]bipyridinyl-2′-yl}-amide] gave an IC50 of under 8 nM.

`CN(C)c1cccc(-c2cc(NC(=O)[C@@H]3CCCNC3)ncc2Cl)n1` [Example 36, (R)-Piperidine-3-carboxylic acid (5′-chloro-6-dimethylamino-[2,4′]bipyridinyl-2′-yl)-amide] came in with an IC50 of 102 nM.

Consider `CC(=O)NCCNc1cccc(-c2cc(NC(=O)[C@@H]3CCCNC3)ncc2Cl)n1` [Example 37, (R)-Piperidine-3-carboxylic acid [6-(2-acetylamino-ethylamino)-5′-chloro-[2,4′]bipyridinyl-2′-yl]-amide], for which half-maximal inhibition (IC50) was put at 50 nM.

The compound `O=C(Nc1cc(-c2cccc(NCC3CCCCC3)n2)c(Cl)cn1)[C@H]1CCCNC1` [Example 38, (S)-Piperidine-3-carboxylic acid [5′-chloro-6-(cyclohexylmethyl-amino)-[2,4′]bipyridinyl-2′-yl]-amide] registered an IC50 of 23 nM.

Regarding `O=C(Nc1cc(-c2cccc(NCc3ccccc3)n2)c(Cl)cn1)[C@@H]1CCCNC1` [Example 39, (R)-Piperidine-3-carboxylic acid (6-benzylamino-5′-chloro-[2,4′]bipyridinyl-2′-yl)-amide], the IC50 was under 8 nM.

Compound `O=C(Nc1cc(-c2cccc(NCc3cccnc3)n2)c(Cl)cn1)[C@@H]1CCCNC1` [Example 40, (R)-Piperidine-3-carboxylic acid {5′-chloro-6-[(pyridin-3-ylmethyl)-amino]-[2,4′]bipyridinyl-2′-yl}-amide] showed an IC50 of under 8 nM.

As for `O=C(Nc1cc(-c2cccc(NCc3cncc(F)c3)n2)c(Cl)cn1)[C@@H]1CCCNC1` [Example 41, (R)-Piperidine-3-carboxylic acid {5′-chloro-6-[(5-fluoro-pyridin-3-ylmethyl)-amino]-[2,4′]bipyridinyl-2′-yl}-amide], the IC50 was under 8 nM.

Compound `O=C(Nc1cc(-c2cccc(N3CCC(c4ccccc4)CC3)n2)c(Cl)cn1)[C@@H]1CCCNC1` [Example 42, (R)-Piperidine-3-carboxylic acid (5″- chloro-4-phenyl-3,4,5,6-tetrahydro-2H-[1,2′;6′,4″]terpyridin-2″- yl)-amide] had an IC50 of 42 nM.

`O=C(Nc1cc(-c2cccc(N3CCC(O)CC3)n2)c(Cl)cn1)[C@@H]1CCCNC1` [Example 43, (R)-Piperidine-3-carboxylic acid (5″- chloro-4-hydroxy-3,4,5,6-tetrahydro-2H-[1,2′;6′,4″]terpyridin-2″- yl)-amide] gave an IC50 of 57 nM.

`O=C(Nc1cc(-c2cccc(N3CCCC3)n2)c(Cl)cn1)[C@@H]1CCCNC1` [Example 44, (R)-Piperidine-3-carboxylic acid (5′-chloro-6-pyrrolidin-1-yl-[2,4′]bipyridinyl-2′-yl)-amide] came in with an IC50 of 181 nM.

Consider `O=C(Nc1cc(-c2cccc(N3CCOCC3)n2)c(Cl)cn1)[C@@H]1CCCNC1` [Example 45, (R)-Piperidine-3-carboxylic acid (5′-chloro-6-morpholin-4-yl-[2,4′]bipyridinyl-2′-yl)-amide], for which the IC50 was determined as 154 nM.

Compound `O=C(Nc1cc(-c2cccc(NCC3CCCOC3)n2)c(Cl)cn1)[C@H]1CCCNC1` (stereo partly drawn) [Example 46, (S)-Piperidine-3-carboxylic acid {5′-chloro-6-[(tetrahydro-pyran-3-ylmethyl)-amino]-[2,4′]bipyridinyl-2′-yl}-amide] returned an IC50 of 56 nM. This IC50 lies about 2.8-fold lower than the previous one.

`N[C@@H]1CC[C@H](C(=O)Nc2cc(-c3cccc(NCC4CCOCC4)n3)c(Cl)cn2)C1` [Example 47, (1S,3R)-3-Amino-cyclopentanecarboxylic acid {5′-chloro-6-[(tetrahydro-pyran-4-ylmethyl)-amino]-[2,4′]bipyridinyl-2′-yl}-amide]: the IC50 was under 8 nM.

In the case of `N[C@H]1CC[C@@H](C(=O)Nc2cc(-c3cccc(NCC4CCOCC4)n3)c(Cl)cn2)C1` [Example 48, (1R,3S)-3-Amino-cyclopentanecarboxylic acid {5′-chloro-6-[(tetrahydro-pyran-4-ylmethyl)-amino]-[2,4′]bipyridinyl-2′-yl}-amide], the IC50 is under 8 nM.

Take `N[C@@H]1CC[C@@H](C(=O)Nc2cc(-c3cccc(NCC4CCOCC4)n3)c(Cl)cn2)C1` [Example 49, (1R,3R)-3-Amino-cyclopentanecarboxylic acid {5′-chloro-6-[(tetrahydro-pyran-4-ylmethyl)-amino]-[2,4′]bipyridinyl-2′-yl}-amide]: the IC50 is under 8 nM.

As for `O=C(Nc1cc(-c2cccc(NCC3CCOCC3)n2)c(Cl)cn1)[C@@H]1CCNC1` [Example 50, (R)-Pyrrolidine-3-carboxylic acid {5′-chloro-6-[(tetrahydro-pyran-4-ylmethyl)-amino]-[2,4′]bipyridinyl-2′-yl}-amide], the IC50 is under 8 nM.

For the compound `O=C(Nc1cc(-c2cccc(NCc3ccccc3F)n2)c(Cl)cn1)[C@@H]1CCCNC1` [Example 51, (R)-Piperidine-3-carboxylic acid [5′-chloro-6-(2-fluoro-benzylamino)-[2,4′]bipyridinyl-2′-yl]-amide], the midpoint of inhibition, the IC50, lay at 10 nM.

In the case of `O=C(Nc1cc(-c2cccc(NCc3ccccn3)n2)c(Cl)cn1)[C@@H]1CCCNC1` [Example 52, (R)-Piperidine-3-carboxylic acid {5′-chloro-6-[(pyridin-2-ylmethyl)-amino]-[2,4′]bipyridinyl-2′-yl}-amide], 38 nM corresponded to half-maximal inhibition (IC50).

On to `O=C(Nc1cc(-c2cccc(NCc3ccc(F)cc3)n2)c(Cl)cn1)[C@@H]1CCCNC1` [Example 53, (R)-Piperidine-3-carboxylic acid [5′-chloro-6-(4-fluoro-benzylamino)-[2,4′]bipyridinyl-2′-yl]-amide], for which the IC50 was under 8 nM.

For the compound `O=C(Nc1cc(-c2cccc(NCc3ccncc3)n2)c(Cl)cn1)[C@@H]1CCCNC1` [Example 54, (R)-Piperidine-3-carboxylic acid {5′-chloro-6-[(pyridin-4-ylmethyl)-amino]-[2,4′]bipyridinyl-2′-yl}-amide], the IC50 was under 8 nM.

`O=C(Nc1cc(-c2cccc(NCc3cccc(OC(F)F)c3)n2)c(Cl)cn1)[C@@H]1CCCNC1` [Example 55, (R)-Piperidine-3-carboxylic acid [5′-chloro-6-(3-difluoromethoxy-benzylamino)-[2,4′]bipyridinyl-2′-yl]-amide] had an IC50 of under 8 nM.

Consider `O=C(Nc1cc(-c2cccc(NCC3CCOCC3)n2)c(Cl)cn1)[C@H]1CCCN1` [Example 57, (R)-Pyrrolidine-2-carboxylic acid {5′-chloro-6-[(tetrahydro-pyran-4-ylmethyl)-amino]-[2,4′]bipyridinyl-2′-yl}-amide], for which inhibition was half-maximal at 81 nM (IC50).

In the case of `O=C(Nc1cc(-c2cccc(NCC3CCOCC3)n2)c(Cl)cn1)[C@@H]1CCCN1` [Example 58, (S)-Pyrrolidine-2-carboxylic acid {5′-chloro-6-[(tetrahydro-pyran-4-ylmethyl)-amino]-[2,4′]bipyridinyl-2′-yl}-amide], the IC50 was 116 nM. The IC50 values of the last two compounds are within 1.5-fold of each other.

Consider `CN1CC(C(=O)Nc2cc(-c3cccc(NCC4CCOCC4)n3)c(Cl)cn2)CC1=O` (stereo not drawn) [Example 60, 1-Methyl-5-oxo-pyrrolidine-3-carboxylic acid {5′-chloro-6-[(tetrahydro-pyran-4-ylmethyl)-amino]-[2,4′]bipyridinyl-2′-yl}-amide], for which the IC50 amounted to 9 nM.

`O=C1CCC(C(=O)Nc2cc(-c3cccc(NCC4CCOCC4)n3)c(Cl)cn2)CN1` (stereo not drawn) [Example 61, 6-Oxo-piperidine-3-carboxylic acid {5′-chloro-6-[(tetrahydro-pyran-4-ylmethyl)-amino]-[2,4′]bipyridinyl-2′-yl}-amide] displayed an IC50 of under 8 nM.

As to `O=C(Nc1cc(-c2cccc(NCC3CCOCC3)n2)c(Cl)cn1)C1CCCOC1` (stereo not drawn) [Example 62, Tetrahydro-pyran-3-carboxylic acid {5′-chloro-6-[(tetrahydro-pyran-4-ylmethyl)-amino]-[2,4′]bipyridinyl-2′-yl}-amide], the IC50 is 19 nM.

On to `O=C(Nc1cc(-c2cccc(NCC3CCOCC3)n2)c(Cl)cn1)C1CCOCC1` [Example 63, Tetrahydro-pyran-4-carboxylic acid {5′-chloro-6-[(tetrahydro-pyran-4-ylmethyl)-amino]-[2,4′]bipyridinyl-2′-yl}-amide], for which the midpoint of inhibition, the IC50, lay at 27 nM.

`CNCCC(=O)Nc1cc(-c2cccc(NCC3CCOCC3)n2)c(Cl)cn1` [Example 64, N-{5′-Chloro-6-[(tetrahydro-pyran-4-ylmethyl)-amino]-[2,4′]bipyridinyl-2′-yl}-3-methylamino-propionamide] registered an IC50 of 37 nM.

Compound `O=C(Nc1cc(-c2cccc(NCC3CCOCC3)n2)c(Cl)cn1)C1CCCC1` [Example 65, Cyclopentanecarboxylic acid {5′-chloro-6-[(tetrahydro-pyran-4-ylmethyl)-amino]-[2,4′]bipyridinyl-2′-yl}-amide] had an IC50 of under 8 nM.

`O=C(Cc1cccnc1)Nc1cc(-c2cccc(NCC3CCOCC3)n2)c(Cl)cn1` [Example 66, N-{5′-Chloro-6-[(tetrahydro-pyran-4-ylmethyl)-amino]-[2,4′]bipyridinyl-2′-yl}-2-pyridin-3-yl-acetamide] yielded an IC50 of 9 nM.

Compound `O=C(Nc1cc(-c2cccc(NCC3CCOCC3)n2)c(Cl)cn1)[C@@H]1CCCO1` [Example 67, (S)-Tetrahydro-furan-2-carboxylic acid {5′-chloro-6-[(tetrahydro-pyran-4-ylmethyl)-amino]-[2,4′]bipyridinyl-2′-yl}-amide] showed a concentration for half-maximal inhibition (IC50) of 396 nM.

Regarding `O=C(Nc1cc(-c2cccc(NCC3CCOCC3)n2)c(Cl)cn1)[C@H]1CCCO1` [Example 68, (R)-Tetrahydro-furan-2-carboxylic acid {5′-chloro-6-[(tetrahydro-pyran-4-ylmethyl)-amino]-[2,4′]bipyridinyl-2′-yl}-amide], the IC50 was found to be 11 nM.

`CC(=O)Nc1cc(-c2cccc(NCC3CCOCC3)n2)c(Cl)cn1` [Example 69, N-{5′-Chloro-6-[(tetrahydro-pyran-4-ylmethyl)-amino]-[2,4′]bipyridinyl-2′-yl}-acetamide] returned an IC50 of 139 nM.
